Measured values published in patent publication US7160911B2, “Diarylcycloalkyl derivatives, process for their preparation and their use as pharmaceuticals” (Sanofi-Aventis Deutschland GmbH, priority 2003, dated 2007).

Each compound was assayed against T1, human PPARalpha (Homo sapiens, UniProt Q07869) (assay: Cellular PPARalpha assay (stably transfected HEK luciferase reporter cell line)). Conditions: PPARalpha reporter cell line (HEK, GR-GAL4-humanPPARalpha-LBD).
T1 construct: amino acids S167–Y468; expressed in transfected cells; host or cells: HEK (human embryo kidney) cells, stably transfected with the pcDNA3 construct
T1 sequence (Q07869 167-468): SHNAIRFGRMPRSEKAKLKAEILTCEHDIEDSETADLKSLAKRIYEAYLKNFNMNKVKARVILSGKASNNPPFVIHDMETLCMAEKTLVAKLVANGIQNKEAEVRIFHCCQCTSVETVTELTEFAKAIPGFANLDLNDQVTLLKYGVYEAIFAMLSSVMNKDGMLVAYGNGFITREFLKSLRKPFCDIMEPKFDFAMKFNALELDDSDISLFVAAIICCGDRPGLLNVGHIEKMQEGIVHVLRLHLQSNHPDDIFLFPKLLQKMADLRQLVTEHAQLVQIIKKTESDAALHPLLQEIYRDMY
Type: cell-based
Method: Determination of EC50 Values of PPAR Agonists in the Cellular PPARalpha Assay
The potency of substances which bind to human PPARalpha and activate in an agonistic manner is analyzed using a stably transfected HEK cell line (HEK=human embryo kidney) which is referred to here as PPARalpha reporter cell line. It contains two genetic elements, a luciferase reporter element (pdeltaM-GAL4-Luc-Zeo) and a PPARalpha fusion protein (GR-GAL4-humanPPARalpha-LBD) which mediates expression of the luciferase reporter element depending on a PPARalpha ligand. The stably and constitutively expressed fusion protein GR-GAL4-humanPPARalpha-LBD binds in the cell nucleus of the PPARalpha reporter cell line via the GAL4 protein portion to the GAL4 DNA binding motifs 5′-upstream of the luciferase reporter element which is integrated in the genome of the cell line.
There is only little expression of the luciferase reporter gene without addition of a PPARalpha ligand if fatty acid-depleted fetal calf serum (cs-FCS) is used in the assay. PPARalpha ligands bind and activate the PPARalpha fusion protein and thereby bring about expression of the luciferase reporter gene. The luciferase which is formed can be detected by means of chemiluminescence via an appropriate substrate.
The PPARalpha reporter cell line was prepared in 2 stages. Firstly, the luciferase reporter element was constructed and stably transfected into HEK cells. For this purpose, five binding sites of the yeast transcription factor GAL4 (each 5′-CGGAGTACTGTCCTCCGAG-3′) (SEQ ID No. 1) were cloned in 5′-upstream of a 68 bp-long minimal MMTV promoter (Genbank Accession # V01175). The minimal MMTV promoter section contains a […] and a TATA element in order to enable efficient transcription by RNA polymerase II. The cloning and sequencing of the GAL4-MMTV construct took place in analogy to the description of Sambrook J. et. al. (Molecular cloning, Cold Spring Harbor Laboratory Press, 1989). Then the complete Photinus pyralis gene (Genbank Accession # M15077) was cloned in 3′-downstream of the GAL4-MMTV element. After sequencing, the luceriferase reporter element consisting of five GAL4 binding sites, MMTV promoter and luciferase gene was recloned into a plasmid which confers zeocin resistance in order to obtain the plasmid pdeltaM-GAL4-Luc-Zeo. This vector was transfected into HEK cells in accordance with the statements in Ausubel, F. M. et al. (Current protocols in molecular biology, Vol. 1–3, John Wiley & Sons, Inc., 1995).
In a second step, the PPARalpha fusion protein (GR-GAL4-humanPPARalpha-LBD) was introduced into the stable cell clone described. For this purpose, initially the cDNA coding for the N-terminal 76 amino acids of the glucocorticoid receptor (Genbank Accession # P04150) was linked to the cDNA section coding for amino acids 1–147 of the yeast transcription factor GAL4 (Genbank Accession # P04386). The cDNA of the ligand-binding domain of the human PPARalpha receptor (amino acids S167–Y468; Genbank Accession # S74349) was cloned in at the 3′-end of this GR-GAL4 construct. The fusion construct prepared in this way (GR-GAL4-humanPPARalpha-LBD) was recloned into the plasmid pcDNA3 (from Invitrogen) in order to enable constitutive expression therein by the cytomegalovirus promoter. This plasmid was linearized with a restriction endonuclease and stably transfected into the previously described cell clone containing the luciferase reporter element. The finished PPARalpha reporter cell line which contains a luciferase reporter element and constitutively expresses the PPARalpha fusion protein (GR-GAL4-human PPARalpha-LBD) was isolated by selection with zeocin (0.5 mg/ml) and G418 (0.5 mg/ml).
The activity of PPARalpha agonists is determined in a 3-day assay which is described below: […]
An EC50 of 0.3 nM was found for `COCCOc1cc(-c2nc(CO[C@H]3CCC[C@@H](OCc4cccc(C)c4C(=O)O)C3)c(C)o2)cc(C(F)(F)F)c1` [Example 10] in this work. An EC50 of 0.6 nM was found for `Cc1ccc(-c2nc(CO[C@H]3CCC[C@@H](OCc4cccc(C)c4C(=O)O)C3)c(C)o2)o1` [Example 4, 2-methyl-6-{(1R,3S)-3-[5-methyl-2-(5-methylfuran-2-yl)oxazol-4-ylmethoxy]cyclohexyloxy-methyl}benzoic acid] in this work. An EC50 of 34 nM was found for `COc1cccc(-c2nc(CO[C@H]3CCC[C@@H](OCc4cccc(C)c4C(=O)O)C3)c(-c3ccccc3)o2)c1` [Example 12, 2-{(1R,3S)-3-[2-(3-methoxyphenyl)-5-phenyloxazol-4-ylmethoxy]cyclohexyloxy-methyl}-6-methylbenzoic acid] in this work. An EC50 of 0.2 nM was found for `Cc1cccc(CO[C@@H]2CCC[C@H](OCc3nc(-c4ccc5ccccc5c4)oc3C)C2)c1C(=O)O` [Example 1, 2-methyl-6-[(1R,3S)3-(5-methyl-2-naphthalen-2-yloxazol-4-yl-methoxy)cyclohexyloxymethyl]benzoic acid] in this work. An EC50 of 0.2 nM was found for `Cc1cccc(CO[C@@H]2CCC[C@H](OCc3nc(-c4ccc5c(c4)OCCO5)oc3C)C2)c1C(=O)O` [Example 3] in this work. An EC50 of 27 nM was found for `Cc1ccc(-c2nc(CO[C@H]3CCC[C@@H](OCc4cccc(C)c4C(=O)O)C3)c(-c3ccccc3)o2)cc1` [Example 11, 2-methyl-6-[(1R,3S)-3-(5-phenyl-2-p-tolyloxazol-4-ylmethoxy)cyclohexyloxy-methyl]benzoic acid] in this work. An EC50 of 0.06 nM was found for `Cc1cccc(CO[C@@H]2CCC[C@H](OCc3coc(C4CCCCC4)n3)C2)c1C(=O)O` [Example 13, 2-[(1R,3S)-3-(2-cyclohexyloxazol-4-ylmethoxy)cyclohexyloxymethyl]-6-methylbenzoic acid] in this work.
